The structures appear in SMILES notation. pIC50, pKi: −log10 of the molar value. Values joined by “and” are separate entries in the source; they are usually repeats but may differ in a detail not shown here. Equal entries are not always repeated.

Experiment [1] concerns the target T1, Fructose-bisphosphate aldolase (Candida albicans (strain SC5314 / ATCC MYA-2876) (Yeast), UniProt Q9URB4).
T1 sequence (Q9URB4 whole entry): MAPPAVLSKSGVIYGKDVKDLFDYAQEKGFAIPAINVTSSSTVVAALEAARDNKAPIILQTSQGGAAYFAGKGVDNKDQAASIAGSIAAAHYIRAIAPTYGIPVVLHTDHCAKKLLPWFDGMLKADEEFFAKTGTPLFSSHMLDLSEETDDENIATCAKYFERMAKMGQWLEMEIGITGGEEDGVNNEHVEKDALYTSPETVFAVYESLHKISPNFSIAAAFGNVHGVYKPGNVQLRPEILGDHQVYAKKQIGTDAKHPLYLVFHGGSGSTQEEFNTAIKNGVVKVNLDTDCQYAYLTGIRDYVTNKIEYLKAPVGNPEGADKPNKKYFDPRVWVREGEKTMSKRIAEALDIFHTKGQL
Nature of the experiment: Inhibition of Candida albicans zinc dependent class 2 Fba.

Experiment [2] concerns the target T2, Fructose-bisphosphate aldolase A (Oryctolagus cuniculus, UniProt P00883).
T2 sequence (P00883 whole entry): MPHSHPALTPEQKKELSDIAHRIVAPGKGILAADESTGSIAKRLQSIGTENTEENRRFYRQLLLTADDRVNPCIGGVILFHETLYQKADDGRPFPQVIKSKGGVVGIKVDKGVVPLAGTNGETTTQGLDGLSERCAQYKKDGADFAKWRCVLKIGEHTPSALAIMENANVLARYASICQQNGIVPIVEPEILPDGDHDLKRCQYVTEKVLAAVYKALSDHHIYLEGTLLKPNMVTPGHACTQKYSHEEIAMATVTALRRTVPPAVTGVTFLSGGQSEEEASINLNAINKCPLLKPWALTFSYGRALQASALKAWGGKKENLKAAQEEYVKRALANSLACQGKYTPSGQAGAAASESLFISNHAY

In experiment [3] the target is T3, Fructose-bisphosphate aldolase (Helicobacter pylori (strain ATCC 700392 / 26695) (Campylobacterpylori), UniProt P56109).
T3 sequence (P56109 whole entry): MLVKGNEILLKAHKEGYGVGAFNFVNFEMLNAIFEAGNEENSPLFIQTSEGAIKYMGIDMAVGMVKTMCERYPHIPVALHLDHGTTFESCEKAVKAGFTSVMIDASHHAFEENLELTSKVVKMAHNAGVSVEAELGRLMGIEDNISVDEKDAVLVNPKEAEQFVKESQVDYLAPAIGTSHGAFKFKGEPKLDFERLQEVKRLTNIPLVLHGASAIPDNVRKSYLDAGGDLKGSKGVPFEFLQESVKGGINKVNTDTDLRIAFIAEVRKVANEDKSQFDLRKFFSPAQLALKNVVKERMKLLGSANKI

In experiment [4] the target is T4, Fructose-bisphosphate aldolase (Mycobacterium tuberculosis, UniProt P9WQA3).
T4 sequence (P9WQA3 whole entry): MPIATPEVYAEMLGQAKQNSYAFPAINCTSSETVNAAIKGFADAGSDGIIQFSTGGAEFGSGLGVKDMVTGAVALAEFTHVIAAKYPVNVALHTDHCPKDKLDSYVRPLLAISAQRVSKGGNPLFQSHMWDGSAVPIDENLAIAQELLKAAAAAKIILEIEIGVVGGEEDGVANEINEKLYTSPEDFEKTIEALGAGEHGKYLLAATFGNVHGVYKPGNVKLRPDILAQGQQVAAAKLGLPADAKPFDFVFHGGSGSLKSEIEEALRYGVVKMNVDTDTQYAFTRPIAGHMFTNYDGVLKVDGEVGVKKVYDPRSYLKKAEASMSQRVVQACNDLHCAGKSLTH

Experiment [5] has as its target T5, Fructose-bisphosphate aldolase class II (Yersinia pestis, UniProt A0A380PJR2).
T5 sequence (A0A380PJR2 whole entry): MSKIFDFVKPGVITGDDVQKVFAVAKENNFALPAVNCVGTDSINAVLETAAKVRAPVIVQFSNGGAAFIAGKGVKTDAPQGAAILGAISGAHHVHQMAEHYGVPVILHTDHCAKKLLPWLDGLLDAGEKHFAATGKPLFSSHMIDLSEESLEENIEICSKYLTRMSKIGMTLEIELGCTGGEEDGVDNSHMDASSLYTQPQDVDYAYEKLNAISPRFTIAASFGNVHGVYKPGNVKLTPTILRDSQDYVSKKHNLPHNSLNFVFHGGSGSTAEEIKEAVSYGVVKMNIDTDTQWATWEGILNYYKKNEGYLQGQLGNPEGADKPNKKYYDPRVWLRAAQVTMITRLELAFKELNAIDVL

For the compound `O=C(COP(=O)(O)O)N(O)CCCCO`, the pKi in experiment [1] was 6.52 and 6.53.
For `O=C(COP(=O)(O)O)N(O)CCCCOP(=O)(O)O`, the pIC50 in experiment [1] is 8.32; in experiment [2], 3.95; in experiment [3] it was 6.88; in experiment [4], 8.49; in experiment [5], 7.44. Also, the pKi in experiment [1] was 8.52 and 8.49.
For `CCCCCCCCCCCC(=O)OCCCCN(O)C(=O)COP(=O)(O)O`, the pKi in experiment [1] is 6.10 and 6.09; in experiment [2] it was 4.17.
With `O=C(COP(=O)(O)O)[C@@H](O)[C@H](O)[C@H](O)COP(=O)(O)O`, the pKi was 4.68 in experiment [4] and 4.26 in experiment [5].
In experiment [2], `O=C(COP(=O)(O)O)N(O)CCCO` gave a pKi of 2.60.
For `CCCCCC(=O)OCCCCN(O)C(=O)COP(=O)(O)O`, the pKi in experiment [1] is 6.55 and 6.56.
